{
  "source": "patent CN101069680A",
  "about": "“2-羟基-4-甲基苯磺酸制剂的制备及其应用” (BEIJING HUARUI DINGXIN TECHNOLOGY Co Ltd, priority 2007, dated 2007)",
  "key": {"[1]": {"system": "Candida albicans 6 (白色念珠菌6)", "experiment": "In vitro antibacterial effect, tube method", "set-up": "key: -: 有明显抑菌作用; +: 没有抑菌作用", "conditions": "1% solution mixed with MH broth with 5% glucose, 37°C, 24 h"}, "egg white (蛋清)": {"system": "egg white (蛋清)", "experiment": "Astringent / coagulating effect on protein (precipitation of egg white)", "set-up": "key to protein precipitation: -: 未见白色沉淀; +: 隐约可见白色沉淀; +: 有少量白色沉淀; ++: 有较多白色沉淀; +++: 有大量白色沉淀", "conditions": "for protein precipitation: 0.2 ml added to 5 ml of 5% egg white"}, "Candida albicans (白色念珠菌)": {"system": "Candida albicans (白色念珠菌)", "experiment": "In vitro antibacterial effect, tube method (summary for the selected strains)", "conditions": "1% solution mixed with MH broth"}, "[2]": {"system": "cervical erosion model rats (宫颈糜烂模型大鼠)", "experiment": "Therapeutic effect on cervical erosion model rats: degree of cervical inflammation / pathology", "assay_type": "in vivo, rat", "conditions": "intravaginal, 12 days, positive control 0.02 g/kg, Example 2 gel 0.1048 g/kg"}, "[3]": {"system": "Enterococcus faecalis 755 (粪肠球菌755)", "experiment": "In vitro antibacterial effect, tube method", "set-up": "key to antibacterial effect: -: 有明显抑菌作用; +: 没有抑菌作用", "conditions": "1% solution mixed with MH broth with 5% defibrinated sheep blood"}, "[4]": {"system": "Staphylococcus epidermidis 26069 (表葡菌26069)", "experiment": "In vitro antibacterial effect, tube method", "set-up": "key to antibacterial effect: -: 有明显抑菌作用; +: 没有抑菌作用", "conditions": "1% solution mixed with MH broth"}, "[5]": {"system": "Candida albicans 12 (白色念珠菌12)", "experiment": "In vitro antibacterial effect, tube method", "set-up": "key: -: 有明显抑菌作用; +: 没有抑菌作用", "conditions": "1% solution mixed with MH broth with 5% glucose, 37°C, 24 h"}, "[6]": {"system": "beta-hemolytic streptococcus 96 (乙型链球菌96)", "experiment": "In vitro antibacterial effect, tube method", "set-up": "key to antibacterial effect: -: 有明显抑菌作用; +: 没有抑菌作用", "conditions": "1% solution mixed with MH broth with 5% defibrinated sheep blood"}, "[7]": {"system": "Candida albicans 2 (白色念珠菌2)", "experiment": "In vitro antibacterial effect, tube method", "set-up": "key: -: 有明显抑菌作用; +: 没有抑菌作用", "conditions": "1% solution mixed with MH broth with 5% glucose, 37°C, 24 h"}, "[8]": {"system": "Candida albicans 10 (白色念珠菌10)", "experiment": "In vitro antibacterial effect, tube method", "set-up": "key: -: 有明显抑菌作用; +: 没有抑菌作用", "conditions": "1% solution mixed with MH broth with 5% glucose, 37°C, 24 h"}, "[9]": {"system": "Staphylococcus aureus 9776 (金葡菌9776)", "experiment": "In vitro antibacterial effect, tube method", "set-up": "key to antibacterial effect: -: 有明显抑菌作用; +: 没有抑菌作用", "conditions": "1% solution mixed with MH broth"}, "[10]": {"system": "cervical erosion model rats (宫颈糜烂模型大鼠)", "experiment": "Therapeutic effect on cervical erosion model rats: body weight, vagina and cervix weight index, white blood cell count", "assay_type": "in vivo, rat", "conditions": "intravaginal, 12 days, positive control 0.02 g/kg, Example 2 gel 0.1048 g/kg"}, "[11]": {"system": "Escherichia coli 26 (大肠埃希氏菌26)", "experiment": "In vitro antibacterial effect, tube method", "set-up": "key to antibacterial effect: -: 有明显抑菌作用; +: 没有抑菌作用", "conditions": "1% solution mixed with MH broth"}, "[12]": {"conditions": "number of rats out of 8 per group"}},
  "data": [
    {"smiles": "Cc1ccc(S(=O)(=O)O)c(O)c1", "note": "[2-羟基-4-甲基苯磺酸]", "values": [
      {"measurement": "antibacterial effect", "setting": "[1]", "result": "-"},
      {"measurement": "threshold concentration for astringent coagulating effect on protein", "setting": "egg white (蛋清); concentration of the added solution", "result": 0.39, "unit": "%"},
      {"measurement": "astringent coagulating effect compared with tannic acid", "setting": "egg white (蛋清); same concentration", "result": "弱于同浓度的鞣酸"},
      {"measurement": "protein precipitation", "setting": "egg white (蛋清); test substance solution 0.098% (tube 10)", "result": "-"},
      {"measurement": "protein precipitation", "setting": "egg white (蛋清); test substance solution 0.195% (tube 9)", "result": "-"},
      {"measurement": "protein precipitation", "setting": "egg white (蛋清); test substance solution 0.78% (tube 7)", "result": "+"},
      {"measurement": "protein precipitation", "setting": "egg white (蛋清); test substance solution 1.56% (tube 6)", "result": "+"},
      {"measurement": "protein precipitation", "setting": "egg white (蛋清); test substance solution 3.125% (tube 5)", "result": "++"},
      {"measurement": "protein precipitation", "setting": "egg white (蛋清); test substance solution 6.25% (tube 4)", "result": "+++"},
      {"measurement": "protein precipitation", "setting": "egg white (蛋清); test substance solution 12.5% (tube 3)", "result": "+++"},
      {"measurement": "protein precipitation", "setting": "egg white (蛋清); test substance solution 25% (tube 2)", "result": "+++"},
      {"measurement": "protein precipitation", "setting": "egg white (蛋清); test substance solution 50% (tube 1)", "result": "+++"},
      {"measurement": "inhibitory effect (in words)", "setting": "Candida albicans (白色念珠菌)", "result": "有明显的抑制作用"},
      {"measurement": "Ridit test u value", "setting": "[2]; inflammation grade vs model group, * = significant difference", "result": 2.8146},
      {"measurement": "inflammation degree grade: mild", "setting": "[2]; [12]", "result": 2},
      {"measurement": "inflammation degree grade: moderate", "setting": "[2]; [12]", "result": 1},
      {"measurement": "inflammation degree grade: normal", "setting": "[2]; [12]", "result": 4},
      {"measurement": "inflammation degree grade: severe", "setting": "[2]; [12]", "result": 1},
      {"measurement": "antibacterial effect (in words)", "setting": "[3]", "result": "没有抑菌作用"},
      {"measurement": "antibacterial effect", "setting": "[3]; 37°C, 24 h", "result": "+"},
      {"measurement": "inhibitory effect (in words)", "setting": "[4]", "result": "有明显的抑制作用"},
      {"measurement": "antibacterial effect", "setting": "[4]; 37°C, 24 h", "result": "-"},
      {"measurement": "antibacterial effect", "setting": "[5]", "result": "-"},
      {"measurement": "antibacterial effect (in words)", "setting": "[6]", "result": "没有抑菌作用"},
      {"measurement": "antibacterial effect", "setting": "[6]; 37°C, 24 h", "result": "+"},
      {"measurement": "antibacterial effect", "setting": "[7]", "result": "-"},
      {"measurement": "antibacterial effect", "setting": "[8]", "result": "-"},
      {"measurement": "inhibitory effect (in words)", "setting": "[9]", "result": "有明显的抑制作用"},
      {"measurement": "antibacterial effect", "setting": "[9]; 37°C, 24 h", "result": "-"},
      {"measurement": "body weight after test", "setting": "[10]; 1 h after last dose, *P<0.05 vs model", "result": "249.6 ± 26.7", "unit": "g"},
      {"measurement": "total white blood cell count", "setting": "[10]; blood, after last dose, *P<0.05, **p<0.01 vs model", "result": "5.74±0.88 10^9g/L"},
      {"measurement": "vagina and cervix weight index", "setting": "[10]; *P<0.05 vs model", "result": "0.268±0.102", "unit": "g/100g body weight"},
      {"measurement": "inhibitory effect (in words)", "setting": "[11]", "result": "有明显的抑制作用"},
      {"measurement": "antibacterial effect", "setting": "[11]; 37°C, 24 h", "result": "-"}
    ]}
  ]
}
